For eight molecules, Activity, IC50 and inhibition results are on record in ChEMBL document CHEMBL3396999, “2-Benzisothiazolylimino-5-benzylidene-4-thiazolidinones as protective agents against cartilage destruction” (Bioorg Med Chem, 2015).

The source made the active and inactive calls. No cut-off for these calls is given here. Bounds are passed on as bounds.

As a reminder, the IC50 is the concentration at which inhibition is half-maximal. For orientation: inhibition means the relative decrease from the control value, in per cent.

Data set [1] is described as follows: Chondroprotective activity in IL-1beta-induced normal human articular chondrocytes assessed as increase in glycosaminoglycans level at 10 uM by 1,9-dimethylmethylene blue staining based spectrophotometry relative to IL-1beta. In kind it is functional.
The nature of data set [2]: Toxicity against normal human articular chondrocytes assessed as reduction in cell viability by MTT assay. For orientation: Tetrazolium assays rely on reduction of a dye to a coloured formazan, in cell work by metabolically active cells.
In a further data set the target is Collagenase 3 (Homo sapiens, UniProt P45452). Kind of data set: Inhibition of MMP13 catalytic domain (unknown origin) assessed as reduction in hydrolysis of Mca-Pro-Leu-Gly-Leu-Dpa-Ala-Arg-NH2 substrate measured for 3 mins after substrate addition by fluorescence assay.
For another data set, the target named is Stromelysin-1 (Homo sapiens, UniProt P08254). The experiment in a line: Inhibition of MMP3 catalytic domain (unknown origin) assessed as reduction in hydrolysis of Mca-Pro-Leu-Gly-Leu-Dpa-Ala-Arg-NH2 substrate measured for 3 mins after substrate addition by fluorescence assay.
Sequence of Stromelysin-1 (P08254 whole entry, the tested form may be a part): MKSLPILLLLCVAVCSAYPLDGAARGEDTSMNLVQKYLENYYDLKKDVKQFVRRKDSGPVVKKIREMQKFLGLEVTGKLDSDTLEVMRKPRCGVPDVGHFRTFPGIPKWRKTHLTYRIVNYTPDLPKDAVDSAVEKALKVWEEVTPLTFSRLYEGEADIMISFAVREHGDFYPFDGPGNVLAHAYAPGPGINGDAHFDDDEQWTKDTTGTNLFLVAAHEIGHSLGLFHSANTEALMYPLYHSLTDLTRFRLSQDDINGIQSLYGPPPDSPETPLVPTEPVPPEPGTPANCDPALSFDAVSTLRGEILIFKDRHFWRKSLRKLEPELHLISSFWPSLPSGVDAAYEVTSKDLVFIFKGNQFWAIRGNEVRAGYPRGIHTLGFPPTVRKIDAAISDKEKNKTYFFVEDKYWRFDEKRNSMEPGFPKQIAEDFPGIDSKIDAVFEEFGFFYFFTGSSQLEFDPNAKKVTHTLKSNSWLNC
Data set [3] is described as follows: Antioxidant activity assessed as AAPH radical scavenging activity assessed as Trolox equivalents by ORAC assay. In kind it is physicochemical.
Data set [4] can be described thus: Chondroprotective activity in IL-1beta-induced normal human articular chondrocytes assessed as reduction in nitric oxide level at 10 uM after 120 hrs by Griess reagent based method. In kind it is functional. (In general: Nitrite, measured by Griess reagent, commonly stands in for NO production.)
In data set [5] the target is Nuclear factor NF-kappa-B complex (Homo sapiens) (UniProt Q00653+P19838+Q04206). Kind of data set: Inhibition of nuclear factor-kappa-B in IL-1beta-induced normal human articular chondrocytes at 10 uM after 120 hrs by Western blotting method. A general note: In western blotting, separated proteins are transferred to a membrane and probed.
Sequence of Nuclear factor NF-kappa-B complex (Homo sapiens) (P19838 whole entry, looked up): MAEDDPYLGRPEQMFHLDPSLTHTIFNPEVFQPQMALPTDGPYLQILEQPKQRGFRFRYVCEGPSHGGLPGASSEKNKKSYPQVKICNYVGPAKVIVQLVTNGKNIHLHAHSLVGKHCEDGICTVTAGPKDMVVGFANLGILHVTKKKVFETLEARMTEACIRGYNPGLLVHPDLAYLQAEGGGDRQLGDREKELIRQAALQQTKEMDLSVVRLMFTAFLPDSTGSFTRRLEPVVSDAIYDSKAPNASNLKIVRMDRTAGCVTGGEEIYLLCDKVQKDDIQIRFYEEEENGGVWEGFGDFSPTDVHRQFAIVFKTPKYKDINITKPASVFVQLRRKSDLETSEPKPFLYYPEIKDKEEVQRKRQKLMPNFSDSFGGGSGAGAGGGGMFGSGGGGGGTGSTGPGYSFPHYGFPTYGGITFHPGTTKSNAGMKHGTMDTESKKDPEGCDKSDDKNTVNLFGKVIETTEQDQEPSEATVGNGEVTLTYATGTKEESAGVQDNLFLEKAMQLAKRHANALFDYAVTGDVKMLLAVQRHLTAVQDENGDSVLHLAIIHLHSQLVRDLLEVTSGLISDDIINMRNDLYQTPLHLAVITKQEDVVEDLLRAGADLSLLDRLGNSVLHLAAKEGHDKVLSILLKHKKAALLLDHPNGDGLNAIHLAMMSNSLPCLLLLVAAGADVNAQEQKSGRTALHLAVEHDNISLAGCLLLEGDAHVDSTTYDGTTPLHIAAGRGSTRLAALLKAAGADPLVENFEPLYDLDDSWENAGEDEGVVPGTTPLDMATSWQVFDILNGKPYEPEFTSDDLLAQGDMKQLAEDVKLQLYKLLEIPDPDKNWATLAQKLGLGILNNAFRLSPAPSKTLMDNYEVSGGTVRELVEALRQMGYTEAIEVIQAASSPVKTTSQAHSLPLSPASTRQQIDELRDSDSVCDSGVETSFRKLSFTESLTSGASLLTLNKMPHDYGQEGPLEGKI
Sequence of Nuclear factor NF-kappa-B complex (Homo sapiens) (Q00653 whole entry, looked up): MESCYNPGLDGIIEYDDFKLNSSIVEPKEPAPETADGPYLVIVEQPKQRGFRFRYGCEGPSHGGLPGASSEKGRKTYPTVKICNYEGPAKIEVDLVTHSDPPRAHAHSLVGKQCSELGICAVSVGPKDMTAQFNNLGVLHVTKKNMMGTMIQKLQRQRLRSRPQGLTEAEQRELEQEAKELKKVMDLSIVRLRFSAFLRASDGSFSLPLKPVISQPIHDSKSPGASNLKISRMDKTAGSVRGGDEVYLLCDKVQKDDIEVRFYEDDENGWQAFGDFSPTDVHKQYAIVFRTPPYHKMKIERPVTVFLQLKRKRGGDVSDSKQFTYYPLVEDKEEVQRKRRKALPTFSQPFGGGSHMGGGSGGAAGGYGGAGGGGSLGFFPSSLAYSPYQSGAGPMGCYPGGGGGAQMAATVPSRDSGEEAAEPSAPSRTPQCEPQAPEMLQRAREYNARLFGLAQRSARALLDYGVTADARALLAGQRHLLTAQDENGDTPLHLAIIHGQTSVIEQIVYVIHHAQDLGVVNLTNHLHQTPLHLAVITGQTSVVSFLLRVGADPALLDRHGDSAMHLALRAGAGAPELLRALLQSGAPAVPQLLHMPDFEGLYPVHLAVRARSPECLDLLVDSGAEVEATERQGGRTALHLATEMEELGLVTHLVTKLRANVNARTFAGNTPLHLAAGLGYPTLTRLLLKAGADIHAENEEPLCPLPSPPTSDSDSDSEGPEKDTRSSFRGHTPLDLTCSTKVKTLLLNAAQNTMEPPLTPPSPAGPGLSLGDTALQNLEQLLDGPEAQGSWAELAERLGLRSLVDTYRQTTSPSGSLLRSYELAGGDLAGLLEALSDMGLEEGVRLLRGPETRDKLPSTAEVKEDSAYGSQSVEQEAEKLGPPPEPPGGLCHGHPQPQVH
Sequence of Nuclear factor NF-kappa-B complex (Homo sapiens) (Q04206 whole entry, looked up): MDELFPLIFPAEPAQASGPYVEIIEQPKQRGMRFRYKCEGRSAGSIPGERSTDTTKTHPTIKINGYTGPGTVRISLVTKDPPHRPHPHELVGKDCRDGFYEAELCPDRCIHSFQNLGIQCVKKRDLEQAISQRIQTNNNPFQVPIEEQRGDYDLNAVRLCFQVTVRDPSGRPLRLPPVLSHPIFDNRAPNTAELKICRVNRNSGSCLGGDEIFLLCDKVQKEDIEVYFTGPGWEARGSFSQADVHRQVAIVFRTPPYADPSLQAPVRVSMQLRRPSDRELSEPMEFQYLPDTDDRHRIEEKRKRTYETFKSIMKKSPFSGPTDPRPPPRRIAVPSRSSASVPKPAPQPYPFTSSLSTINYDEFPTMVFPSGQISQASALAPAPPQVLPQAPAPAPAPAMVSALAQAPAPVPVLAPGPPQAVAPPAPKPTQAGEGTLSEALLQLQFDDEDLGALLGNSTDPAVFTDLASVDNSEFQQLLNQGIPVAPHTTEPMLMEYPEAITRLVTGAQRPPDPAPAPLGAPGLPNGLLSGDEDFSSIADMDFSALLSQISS
Data set [6] in a line: Chondroprotective activity in IL-1beta-induced normal human articular chondrocytes assessed as MMP13 protein release at 10 uM after 120 hrs by ELISA method (reference value: 112 ng/ml). It counts as functional.

`O=C1N/C(=N/c2nsc3ccccc23)S/C1=C\c1ccccc1Cl`: the Activity is reported as 34% in data set [1], “Non-toxic” in data set [2] and 0.45 in data set [3]. The IC50 at Collagenase 3 was 89.4 µM; on Stromelysin-1 it was 6.19 µM. The inhibition at 10 µM in data set [4] amounted to 13%.

Consider `O=C1N/C(=N/c2nsc3ccccc23)S/C1=C/c1cccc(O)c1`, for which the Activity in data set [1] is listed as 32%; in data set [2] it was “Non-toxic”; in data set [3], 1.2. For the same molecule, the IC50 on Collagenase 3 was 26.9 µM; on Stromelysin-1 it was at least 100 µM. Further, in data set [4], the inhibition at 10 µM stood at 9%.

For `O=C1N/C(=N/c2nsc3ccccc23)S/C1=C/c1ccccc1O`, the results for the Activity in data set [1], in data set [2] and in data set [3] were 40%, “Non-toxic” and 0.8, respectively. Also, the 50% inhibitory concentration (IC50) at Collagenase 3 was at least 100 µM; at Stromelysin-1 it was 97.4 µM. Besides, the inhibition at 10 µM in data set [4] was found to be 29%.

On to `O=C1N/C(=N/c2nsc3ccccc23)S/C1=C\c1ccccc1`, for which the values for the Activity in data set [1] and in data set [2] were 28% and “Non-toxic”, respectively. Moreover, the 50% inhibitory concentration (IC50) at Collagenase 3 is 32 µM; on Stromelysin-1 it was at least 100 µM. Moreover, the inhibition at 10 µM in data set [4] amounted to 42%.

For `O=C1N/C(=N/c2nsc3ccccc23)S/C1=C\c1ccccc1[N+](=O)[O-]`, the Activity in data set [1] is on record as 31%; in data set [2], “Non-toxic”; in data set [3], “>= 100”. The IC50 was 64 µM at Collagenase 3 and 43 µM on Stromelysin-1. Further, the inhibition at 10 µM in data set [4] worked out at 48%.

Consider `O=C1N/C(=N/c2nsc3ccccc23)S/C1=C\c1ccc(Cl)cc1`, for which the Activity in data set [1] is 30%; in data set [2], “Non-toxic”; in data set [3], 1.64. The IC50 on Collagenase 3 is 25 µM; at Stromelysin-1, 65 µM. For the same molecule, the inhibition at 10 µM in data set [4] amounted to 46%.

For `O=C1N/C(=N/c2nsc3ccccc23)S/C1=C\c1cccc([N+](=O)[O-])c1`, the Activity in data set [1] is 37%; in data set [2] it was “Non-toxic”; in data set [3] it was “>= 100”. Also, the half-inhibitory concentration (IC50) on Collagenase 3 was 55.9 µM; at Stromelysin-1 it was at least 100 µM. Besides, the inhibition at 10 µM in data set [4] was found to be 46%.

As to `COc1cc(/C=C2\S/C(=N\c3nsc4ccccc34)NC2=O)ccc1O`, the Activity in data set [1] is 40%; in data set [2], “Non-toxic”; in data set [3] it was 1.35; in data set [6] it was 4.3 ng/mL. For the same molecule, in data set [5], the inhibition result is “Active”. The half-inhibitory concentration (IC50) on Collagenase 3 was at least 100 µM; at Stromelysin-1, 3.15 µM. Moreover, in data set [4], the inhibition at 10 µM stood at 66%.
